Measurements reported in patent US20060153782A1, “Skin photoageing and actinic damage treatment” (Novogen Research Pty Ltd, priority 2002, published 2006).

Experiments:
skin thickness = test: Skin thickness of hairless mice after chronic UV exposure; type: in vivo; conditions: hairless mice treated either before or after chronic UV exposure, vs non-treated mice
Text: Increased skin thickness may be associated with wrinkles, capillary dilation in skin and skin dryness, as well as actinic damage.

CPD+ve epidermal cells = test: Cyclobutane pyrimidine dimers (CPD) in UV-irradiated human skin; type: in vivo; conditions: human subject; equol treated skin post-UVR compared with vehicle-only treated skin
Text: The formation of CPD's, which occurs immediately on UV exposure (Viv Reeve, pers comm) would be unaffected by any therapeutic agent applied post-UVR. However, the rate of repair of CPDs might be increased by equol. If this occurred, fewer CPDs in equol treated skin compared with the number in vehicle-only treated skin would be observed. [drawing 5] Equol (CAS No. 531-95-3)

Oc1ccc(C2=Cc3ccc(O)cc3OC2)cc1 [dehydroequol]
skin thickness (skin thickness): decreased skin thickness

Oc1ccc(C2COc3cc(O)ccc3C2)cc1 (stereo not drawn) [equol, Equol]
percentage of CPD+ve epidermal cells (CPD+ve epidermal cells): lower percentage of CPD+ve epidermal cells | skin thickness (skin thickness): decreased skin thickness
